Source: US9192656B2, “Methods and compositions for the treatment of cancer” (QUINTESSENCE BIOSCIENCES, INC., priority 2006, dated 2015)

Legend:
[1] = test system: non-small cell lung cancer cell line (A549); assay: In vivo inhibition of tumor growth, A549 xenograft; design: species or system human tumor cells in nude mice; conditions: for Starting volume: at start
Experimental: (§1) Cells from a non-small cell lung cancer cell line (A549) were grown in nine T175 flasks in F12K media and 10% fetal calf serum until the cells were confluent. 4.5×10^6 cells (in 100 microliters) were injected into the right rear flank of 4-5 week old male homozygous (nu/nu) nude mice (Harlan, Madison Wis.). Tumors were allowed to grow to an average size of ≧75 mm^3 before treatments were initiated. Animals of each tumor type, with the properly sized tumors, were divided into treatment groups, including one set of animals treated weekly with vehicle (phosphate buffered saline, PBS). The vehicle and the test agents were all administered by intraperitoneal injection. Each animal was weighed twice a week during treatment. The tumors were measured twice weekly using calipers. Tumor volume (mm^3) was determined by using the formula for an ellipsoid sphere:
[formula] The efficacy of wild type human RNase 1 is shown relative to cisplatin. The RNase 1 was administered at 75 mg per kg of body weight of the animal once a week (75 mg/kg 1×wk), while the cisplatin was used at 6 mg/kg once a week. The value of n represents the number of animals in the specific treatment arm of the experiment.
(§2) The percent tumor growth inhibition (% TGI) is calculated by: […]
The xenograft model of this example was set up with the human non-small cell lung cancer cell line (A549) as in the previous examples. The efficacy of wild type human RNase 1 is shown relative to tarceva. The RNase 1 was administered at 75 mg per kg of body weight of the animal (75 mg/kg 1×wk) or 150 mg/kg 1×wk. Tarceva was given orally with doses of 50 mg/kg twice a week. The value of n represents the number of animals in the specific treatment arm of the experiment.

[2] = test system: human pancreatic cancer cell line (B×PC-3); assay: In vivo inhibition of tumor growth, BxPC-3 xenograft; design: species or system human tumor cells in nude mice; conditions: for Starting volume: at start
Experimental: as §1, with “sphere: […]” for “sphere:”
as §2
(§3) The xenograft model of this example was set up as in the previous example except that a human pancreatic cancer cell line (B×PC-3) was used. The efficacy of wild type human RNase 1 is shown relative to gemcite. The RNase 1 was administered at 15 mg per kg of body weight of the animal five times per week (15 mg/kg qd×5), while the gemcite was used at 60 mg/kg twice a week. The value of n represents the number of animals in the specific treatment arm of the experiment.
as §3, with “shown.” for “shown relative to gemcite.”, “three different doses: (1) 30” for “15”, “once” for “five times”, “(30” for “(15”, “1×wk), (2) 75” for “qd×5), while the gemcite was used at 60”, “1×wk, or (3) 150 mg/kg 1×wk.” for “twice a week.”

[3] = Example 3, Table 7, i.p., RNase 1 75 mg/kg 1×wk, cisplatin 6 mg/kg once a week
[4] = Example 6, Table 10, 75 mg/kg 1×wk
[5] = Example 6, Table 10, 150 mg/kg 1×wk
[6] = Example 5, Table 9, RNase 1 15 mg/kg qd×5, gemcite 60 mg/kg twice a week
[7] = Example 7, Table 11, 30 mg/kg 1×wk
[8] = Example 7, Table 11, 75 mg/kg 1×wk
[9] = Example 7, Table 11, 150 mg/kg 1×wk

For “Wild type human RNase 1: wild type human ribonuclease 1 (human pancreatic RNase), SEQ ID NO:1”, the “% TGI” value [1, 3] was 51%, the “(Final − start)” value [1, 3] was 149 mm^3 and the “(Final − start)/Control” value [1, 3] was 0.49. For the same substance, the Final volume [1, 3] was 217 mm^3, the Starting volume [1, 3] was 68 mm^3 and the “% TGI” value [1, 4] was 63%. The “(Final − start)” value [1, 4] was 300 mm^3, the “(Final − start)/Control” value [1, 4] was 0.37 and the Final volume [1, 4] was 378 mm^3. For the same substance, the Starting volume [1, 4] was 78 mm^3, the “% TGI” value [1, 5] was 66% and the “(Final − start)” value [1, 5] was 276 mm^3. The “(Final − start)/Control” value [1, 5] was 0.34, the Final volume [1, 5] was 355 mm^3 and the Starting volume [1, 5] was 79 mm^3. The “% TGI” value [2, 6] was 24%, the “(Final − start)” value [2, 6] was 822 mm^3 and the “(Final − start)/Control” value [2, 6] was 0.76. The Final volume [2, 6] was 899 mm^3, the Starting volume [2, 6] was 77 mm^3 and the “% TGI” value [2, 7] was 3%. The “(Final − start)” value [2, 7] was 554 mm^3, the “(Final − start)/Control” value [2, 7] was 0.97 and the Final volume [2, 7] was 632 mm^3. For the same substance, the Starting volume [2, 7] was 78 mm^3, the “% TGI” value [2, 8] was 43% and the “(Final − start)” value [2, 8] was 323 mm^3. For the same substance, the “(Final − start)/Control” value [2, 8] was 0.57, the Final volume [2, 8] was 392 mm^3 and the Starting volume [2, 8] was 69 mm^3. For the same substance, the “% TGI” value [2, 9] was 29%, the “(Final − start)” value [2, 9] was 402 mm^3 and the “(Final − start)/Control” value [2, 9] was 0.71. It also gave a Final volume [2, 9] of 471 mm^3 and a Starting volume [2, 9] of 69 mm^3.
